Measurements reported in US20130230470A1, “PET FOOD COMPOSITION” (DSM IP ASSETS B.V., priority 2003, published 2013).

What was measured:
[1] = system: domestic shorthair (DSH) breed cats; experiment: clean tooth model, 28-day feeding study in cats: gingivitis, plaque and calculus indices; assay type: in vivo; conditions: treatment diet 2.3 g STAY-C 50/kg cat food, 28 days
Experimental: (§1) 18 domestic shorthair (DSH) breed cats (mean age 3.83±1.85 years, mean body weight 4.2+1.1 kg) were divided by age and gender into two equal groups (n=9) to be fed for 28 days with a • control diet or • treatment diet (2.3 g STAY-C® 50/kg cat food) As the “clean tooth” model was used, all cats received a dental cleaning consisting of ultrasonic scaling and, where necessary, using an abrasor after […], before the beginning of the study. The animals were then treated with the diets for 28 days. The analysis of the different indices were carried out according known methods.

[2] = system: domestic shorthair (DSH) breed cats; experiment: 28-day feeding study in cats: systemic health, body weight, blood counts, serum biochemistry; assay type: in vivo; conditions: treatment diet 2.3 g STAY-C 50/kg cat food, 28 days
Experimental: as §1

O=C1O[C@H]([C@@H](O)CO)C(O)=C1OP(=O)(O)O.[Na+].[Na+].[Na+] [STAY-C®50, trisodium L-ascorbic acid-2-monophosphate] was tested, and the “Calculus indices, reduction compared to control group” value [1] was “about 14%”, the Plaque indices [1] was “reduced significantly” and the Gingivitis indices ([1]; control group 28% increase) was “not increased”. For the same compound, the “changes in systemic health, body weight, blood counts or serum biochemistry” value [2] was “No changes”.
